Measured values published in paper PMC7956476, “Quinoline Functionalized Schiff Base Silver (I) Complexes: Interactions with Biomolecules and In Vitro Cytotoxicity, Antioxidant and Antimicrobial Activities” (Molecules, 2021).

Legend:
[1] = system: Staphylococcus aureus ATCC 700699 (methicillin-resistant); test: Minimum inhibitory concentration (MIC), spotting on Müeller–Hinton agar; format: cell-based; details: Gram + Ve; methicillin-resistant S. aureus; 37 °C, 18 h
[2] = system: Pseudomonas aeruginosa ATCC 27853; test: as above; format: cell-based; details: Gram − Ve; P. aeruginosa; 37 °C, 18 h
[3] = system: Staphylococcus aureus ATCC 25923; test: as above; format: cell-based; details: Gram + Ve; S. aureus; 37 °C, 18 h
[4] = system: Escherichia coli ATCC 25922; test: as above; format: cell-based; details: Gram − Ve; E. coli; 37 °C, 18 h
[5] = system: Salmonella typhimurium ATCC 14026; test: as above; format: cell-based; details: Gram − Ve; S. typhi; 37 °C, 18 h
[6] = molecular target: bovine serum albumin (BSA) (Bos taurus, UniProt P02769); test: Albumin binding by absorption spectroscopy titration
bovine serum albumin (BSA), sequence (P02769 25-607): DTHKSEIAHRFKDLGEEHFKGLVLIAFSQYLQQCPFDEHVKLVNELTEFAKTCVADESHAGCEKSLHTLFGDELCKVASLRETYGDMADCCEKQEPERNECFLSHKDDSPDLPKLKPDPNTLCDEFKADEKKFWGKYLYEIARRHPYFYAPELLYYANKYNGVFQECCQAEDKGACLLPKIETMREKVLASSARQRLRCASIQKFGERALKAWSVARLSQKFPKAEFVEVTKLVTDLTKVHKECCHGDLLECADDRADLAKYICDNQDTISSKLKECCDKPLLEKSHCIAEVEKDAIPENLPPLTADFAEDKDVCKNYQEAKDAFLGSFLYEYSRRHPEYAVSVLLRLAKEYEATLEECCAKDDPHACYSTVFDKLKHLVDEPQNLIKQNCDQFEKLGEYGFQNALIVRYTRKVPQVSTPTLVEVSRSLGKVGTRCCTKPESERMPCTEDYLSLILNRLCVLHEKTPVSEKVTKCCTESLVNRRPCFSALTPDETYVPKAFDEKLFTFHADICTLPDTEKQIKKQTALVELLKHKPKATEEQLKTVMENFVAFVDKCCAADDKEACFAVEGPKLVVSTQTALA

SMILES | Minimum inhibitory concentration, MRSA [1] | Minimum inhibitory concentration, PA [2] | Minimum inhibitory concentration, SA [3] | Minimum inhibitory concentration, EC [4] | Minimum inhibitory concentration, ST [5] | Protein-Complex Kb (M^−1) × 10^4 [6]
[Ag+].[O-][Cl+3]([O-])([O-])[O-].c1ccc2nc(-c3nc4ccccc4s3)ccc2c1.c1ccc2nc(-c3nc4ccccc4s3)ccc2c1 [Complex Q7, [Ag(L2)2]ClO4] | 50 µg/mL | 0.2 µg/mL | 1.6 µg/mL | 25 µg/mL | 50 µg/mL | 9.38 (M^−1) × 10^4
Cc1ccc(N=Cc2ccc3ccccc3n2)cc1.Cc1ccc(N=Cc2ccc3ccccc3n2)cc1.[Ag+].[O-][Cl+3]([O-])([O-])[O-] [Complex Q9, [Ag(L4)2]ClO4] | 1000 µg/mL |  | 50 µg/mL | 12.5 µg/mL | 50 µg/mL | 5.43 (M^−1) × 10^4
